Key:
[1] = system: human adipose stem cells (hASCs); assay: ALP activity of hASCs in 3D PLGA/β-TCP scaffold, dynamic and static culture; type: cell-based
Experimental: In one embodiment, dynamic culture of pre-treated hASCs with calcitriol, using the modified perfusion bioreactor comprises the following steps. In one embodiment, the scaffolds are 3D PLGA/β-TCP. The modified perfusion bioreactor […] comprises five scaffolds, loaded with a total of 70 ml of culture medium as shown in FIG. 2. At another step, 30 ml of the culture medium is replaced twice a week for a total period of two weeks. At another step, the culture medium in the modified perfusion bioreactor 200 is distributed to the five scaffolds with the flow rate of about 5 ml/min using the peristaltic pump 202.
In one embodiment, the method of static culture of pre-treated hASCs is continued in a flask bioreactor with the same volume of culture medium utilized in the dynamic culture. Further, the methods of culturing the hASCs are divided into different groups. In one embodiment, the methods of culturing of hASCs are divided into four groups such as, static culture of non-treated hASCs, static culture of pre-treated hASCs with calcitriol, dynamic culture of non-treated hASCs and dynamic culture of pre-treated hASCs with calcitriol.
Referring to FIG. 10, the effects of dynamic pre-treated/non-treated hASCs versus static pre-treated/non-treated hASCs on ALP activity of hASCs are disclosed, where the hASCs are seeded in 3D PLGA/β-TCP scaffold. In one embodiment, the hASCs are pre-treated with or without 10 nM calcitriol for 30 minutes and cultured in the modified perfusion bioreactor 200 (dynamic culture) and flask bioreactor (static culture). The ALP activity of hASCs after 7 days perfusion culture of pre-treated hASCs is increased by 9.2-fold compared to static culture of pre-treated hASCs, and the ALP activity of non-treated hASCs is increased by 10.3-fold compared to static culture of non-treated hASCs.
The 14 days of perfusion culture of non-treated hASCs increases ALP activity by 1.4-fold relative to static counterpart, and perfusion culture of pre-treated hASCs increases ALP activity by 2.2-fold relative to static culture of pre-treated hASCs. Moreover, calcitriol pre-treatment increases ALP activity of hASCs by 2.8-fold at day 7 and 1.3-fold at day 14 compared to non-treated hASCs in static condition. On the whole, the highest ALP activity is observed at day 7, which belongs to perfusion culture of pre-treated hASCs with calcitriol.

[2] = system: human adipose stem cells (hASCs); assay: hASC attachment to BCP20/80 scaffolds after calcitriol pre-treatment; type: cell-based
Experimental: In one embodiment, a method of static culture of hASCs by pre-treatment with vitamin D3 (calcitriol) and attachment of hASCs to the scaffold used in one-step surgical procedure comprises the following steps. At one step, isolating hASCs as explained in FIG. 1. In an embodiment, the hASCs from three donors at passage 3 are used for further processing. As an optional step, the obtained hASCs are either or not incubated for a period of about 30 mins with low concentrated calcitriol of about 10 nM at room temperature. At next step, the calcitriol treated hASCs are washed twice with Phosphate Buffered Saline (PBS) to remove calcitriol. Further, the washed hASCs are centrifuged and resuspended in Dulbecco's Minimum Essential Medium (DMEM) without any supplements. At another step, the resuspended cells are seeded on the scaffold and allowed to attach to the scaffolds for a period of about 30 minutes. At next step, the scaffolds with attached cells are transferred to 12-well plates with Costar® Transwell® containers (Corning Life Sciences, Lowell, Mass., USA) containing expansion medium (DMEM) supplemented with 10% Fetal Clone I (FCI), antibiotics (1% penicillin/streptomycin/fungizone (PSF)), 50 μM ascorbic acid (Merck, Darmstadt, Germany), and 10 mM β-glycerol phosphate (Merck, Darmstadt, Germany) (PLGA/β-TCP). […]

With `C=C1/C(=C\C=C2/CCC[C@]3(C)[C@@H]([C@H](C)CCCC(C)(C)O)CC[C@@H]23)C[C@@H](O)C[C@@H]1O` [calcitriol, 1,25-dihydroxyvitamin D3] the “ALP activity, increase” value ([1]; 7 days, perfusion culture of pre-treated hASCs vs static culture of pre-treated hASCs) was 9.2 fold, the “ALP activity, increase” value ([1]; 7 days, perfusion culture of pre-treated vs perfusion culture of non-treated hASCs) was 2.6 fold and the “ALP activity, increase” value ([1]; 14 days, perfusion culture of pre-treated vs static culture of pre-treated hASCs) was 2.2 fold. For the same molecule, the “ALP activity, increase” value ([1]; static condition, day 7, pre-treated vs non-treated hASCs) was 2.8 fold, the “ALP activity, increase” value ([1]; static condition, day 14, pre-treated vs non-treated hASCs) was 1.3 fold and the “cell attachment to BCP scaffolds” value ([2]; 30 min pre-treatment with 10 nM calcitriol (non-treated 54%)) was 83%. The “cell attachment to BCP scaffolds, increase” value ([2]; 30 min pre-treatment with 10 nM calcitriol, vs non-treated cells) was 1.5 fold.

Source: patent US20210009959A1, “METHODS FOR ENHANCING OSTEOGENIC DIFFERENTIATION USING VITAMIN D” (priority 2019, published 2021)
